Data: publication PMC11930985 (Nature Communications, 2025)
In brackets after ≈: the same amount, converted by molar mass. Several values for one entry are separate records, joined by “and”; a condition that tells them apart may be missing. Identical values can stand only once.

What was measured:
AML/MDS patients = test: ECG QTcF prolongation (Fridericia), graded; assay type: in vivo
Description: Electrocardiograms were obtained at screening, Cycle 1 Day 1–4, 8, and 15, Cycle 2 Day 1, 8 and 15, at Day 1 of each cycle thereafter, (up to and including Cycle 15), and at Final Study Visit. QT prolongation was assessed using the Fridericia correction QTcF=QT/RR3 [34]. Severity of QTcF prolongation was defined as follows: Grade 1: maximum prolongation 450–480 ms; Grade 2: maximum prolongation 481-500 ms; Grade 3: ≥501 ms on at least two separate ECGs; Grade 4: ≥501 ms or >60 ms change from baseline, with Torsades de pointes, polymorphic ventricular tachycardia or signs/symptoms of serious arrythmia; Grade 5: Death.

pS6 S235/S236 = test: CyTOF maximal inhibition in Undefined/Immature Myeloid cells: pS6; assay type: in vivo; conditions: Homo sapiens, N = 12 patients, read-out: EC50 (± standard error), pS6 S235/S236 inhibition
Description: (§1) Pharmacodynamic endpoints included the measurement of inhibition of pAXL, pERK, pAKT, pS6 and pSTAT1/3/5 in blast cells (defined as cells with abnormal surface marker expression as compared to healthy donor peripheral blood mononuclear cells and undefined/immature myeloid cells (defined as cells carrying myeloid markers but lacking distinguishing terminal differentiation markers). Mass cytometry time of flight (CyTOF) was used for the determination of the pharmacodynamic markers using a previously validated and tested panel of mass-tagged antibodies[39],[40]. The antibodies in the panel are listed in Supplementary Table 5. Briefly, fixed leukocytes from peripheral blood were barcoded using a 20-plex metal barcoding kit (Standard Biotools, Cell-ID 201060) according to manufacturer’s protocol, allowing all the samples from a single individual to be stained and analysed in parallel. All analysis runs included barcoded peripheral blood mononuclear cells (PBMCs) from at least one healthy donor and an identical barcoded reference sample (mix of PBMCs from six healthy donors). […]
(§2) For each population, marker, and sample, the 95th percentile of the non-transformed expression values was calculated. […]

pERK1/2 T202/Y204 = test: CyTOF maximal inhibition in Undefined/Immature Myeloid cells: pERK1/2; assay type: in vivo, human
Description: as §1, §2

Tie2 = biological target: Tie2; parameters: method as in Investigator's Brochure (IB) version 5.0; conditions: ref Investigator's Brochure (IB) version 5.0; cited from earlier work
Yes = biological target: Yes; parameters: method as in Investigator's Brochure (IB) version 5.0; conditions: ref Investigator's Brochure (IB) version 5.0; cited from earlier work
Ret = system: Ret; parameters: method as in Investigator's Brochure (IB) version 5.0; conditions: ref Investigator's Brochure (IB) version 5.0; cited from earlier work
Flt1 = system: Flt1; parameters: method as in Investigator's Brochure (IB) version 5.0; conditions: ref Investigator's Brochure (IB) version 5.0; cited from earlier work

**Q.** For `Nc1nc(Nc2ccc3c(c2)CC[C@@H](N2CCCC2)CC3)nn1-c1cc2c(nn1)-c1ccccc1CCC2` [Bemcentinib], which “Grade 4 or Grade 5 QTcF prolongation events” value (AML/MDS patients; DE and LDAC cohorts) is on record?
**A.** No patients

**Q.** What about the “No. of QTcF prolonged events: Grade 5” value (AML/MDS patients; Dose Escalation Cohort Overall (N=36)) of the same compound?
**A.** 0

**Q.** What about the “No. of QTcF prolonged events: Grade 1” value (AML/MDS patients; human, in vivo) of the same compound?
**A.** 8

**Q.** What about the “No. of QTcF prolonged events: Grade 2” value (AML/MDS patients; human, in vivo) of the same compound?
**A.** 7

**Q.** And the “No. of QTcF prolonged events: Grade 3” value (AML/MDS patients; human, in vivo)?
**A.** 5

**Q.** What about the “No. of QTcF prolonged events: Grade 4” value (AML/MDS patients; human, in vivo) of the same compound?
**A.** 0

**Q.** What about the “Patients with only Grade 1 or Grade 2 QTcF prolongation / patients with QTcF prolongation” value (AML/MDS patients; human, in vivo) of the same compound?
**A.** 5/9

**Q.** And the “Patients with Grade 3 QTcF prolongation” value (AML/MDS patients; in vivo)?
**A.** Four

**Q.** What about the EC50 (pS6 S235/S236) of the same compound?
**A.** 0.1187 ± 0.0011 µg/mL (≈ 0.234 µM)

**Q.** What about the EC50 (pERK1/2 T202/Y204; Homo sapiens, Undefined/Immature Myeloid cells, N = 12 patients, read-out: EC50 (± standard error), pERK1/2 T202/Y204 inhibition) of the same compound?
**A.** 0.0873 ± 0.0017 µg/mL (≈ 0.172 µM)

**Q.** What about the “Maximum inhibition (percent) pERK1/2 (T202/Y204)” value (pERK1/2 T202/Y204; Supplementary Figure 1c, individual patients) of the same compound?
**A.** 87.1% and 71.6% and 100% and 8.8% and 98.1% and 30.4% and 66.9% and 0% and 5.7% and 94.5% and 39.2% and 69.3%

**Q.** What about the Kd (Tie2) of the same compound?
**A.** 270 nM

**Q.** And the Kd (Yes)?
**A.** 810 nM

**Q.** What about the IC50 (Ret) of the same compound?
**A.** 38 nM

**Q.** And the IC50 (Flt1)?
**A.** 40 nM
